The values below come from patent publication US11292788B2, “IL-17 and IFN-gamma inhibition for the treatment of autoimmune diseases and chronic inflammation” (Immunic AG, priority 2017, dated 2022).

Where two headings read alike, the source gives them in different places. Bounds are passed on as bounds.

One data set deals with IL-17A. The data set can be described thus: Cytokine assay: IL-17A production by human PBMC stimulated with PHA. The data set is classed as cell-based. Particulars: IC50 class, read-out: IL-17A Inhib. The method in brief: (§1)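 Healthy-donor PBMC, isolated on Histopaque-1077, were seeded at 1×10^5 cells/well in RPMI1640 with 10% dialyzed heat-inactivated FCS, activated with 2 μg/ml PHA and incubated with compound for 48 hours. Supernatant cytokine was measured by Luminex BioPlex or ELISA. IC50 came from semilogarithmic titration; screening used 10, 1, 0.1 and 0.01 μM.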

The nature of data set [1]: Microsomal stability: incubation with human liver microsomes, residual parent compound by HPLC-MS/MS. Particulars: human liver microsomes 0.5 mg/ml, compound 1 μM, pH 7.4, 37° C., up to 60 min; read-out: t1/2 hLM. Type of data set: in vitro ADME. The method, then:
Metabolic stability of compounds of the present invention was determined by incubation with human liver microsomes and subsequent determination of residual amount of the respective compound (“parent compound”) by HPLC-MS/MS.
In order to achieve this, in a final reaction volume of 1000 μl, each compound was incubated at a final concentration of 1 μM with 0.5 mg/ml human liver microsomes (HLM Pool 50 Donors, 20 mg/ml, BD Gentest, #452156, LotNr 88114) in 0.1 M Potassium phosphate buffer at pH 7.4, with a cofactor in form of a NADPH regenerating system (Promega, #V9510) according to the manufacturers' specifications. The final DMSO concentration in each sample was 0.4%. The incubation was performed at 37° C. under shaking conditions (Thermomixer, 1400 rpm) for different time intervals up to 60 min. To stop the reaction, for each time point 200 μl of the reaction were taken out and 200 μl ice-cold acetonitrile was added. Then, the samples were centrifuged (4° C., 14000*g for 15 min). The supernatant was analyzed for residual parent compound concentration and scanned for metabolites using HPLC-MS/MS. By using optimized MS methods for each compound, the peak area under curve for the compound specific signal is determined. The change of the peak areas over the assay time of 60 min resemble the remaining parent compound in % of T0. By these points, a balancing line was set. The half-time, as well as the clearance, can then be calculated on the basis of the slope.
For orientation: Liver microsomes are vesicles of endoplasmic reticulum, rich in cytochrome P450 enzymes.

The next data set relates to INF-γ. Description: Cytokine assay: INF-γ production by human PBMC stimulated with PHA. The conditions noted are these: IC50 class, read-out: IFN-gamma Inhib. The data set is classed as cell-based. The method in brief:
as §1

The next data set has as its system IL-17F. Description: Cytokine assay: IL-17F production by human PBMC stimulated with PHA. Type of data set: cell-based. Particulars: IC50 class, read-out: IL-17F Inhib. The procedure, abridged: as §1

For `CCC(O)Cn1ncc(-c2onc(-c3c(F)cccc3Cl)c2-c2nccs2)c1C(F)(F)F` (racemic) [Example 6, 1-{4-[3-(2-chloro-6-fluorophenyl)-4-(1,3-thiazol-2-yl)-1,2-oxazol-5-yl]-5-(trifluoromethyl)-1H-pyrazol-1-yl}butan-2-ol], the IC50 in the data set with IL-17A (Homo sapiens, PBMC) was below 50 nM; in the data set on INF-γ (Homo sapiens, PBMC), below 50 nM; in the data set on IL-17F (Homo sapiens, PBMC), below 50 nM. Further, in data set [1], the half-life at 1 μM is 10 to 40 min.
As to `OC(Cn1ncc(-c2onc(-c3c(F)cccc3Cl)c2-c2nccs2)c1C(F)(F)F)C(F)(F)F` (racemic) [Example 7, 3-{4-[3-(2-chloro-6-fluorophenyl)-4-(1,3-thiazol-2-yl)-1,2-oxazol-5-yl]-5-(trifluoromethyl)-1H-pyrazol-1-yl}-1,1,1-trifluoropropan-2-ol], the IC50 in the data set with IL-17A (Homo sapiens, PBMC) is below 50 nM; in the data set with INF-γ (Homo sapiens, PBMC) it was below 50 nM; in the data set with IL-17F (Homo sapiens, PBMC), below 50 nM. Also, in data set [1], the half-life at 1 μM fell in the range of 10 to 40 min.
For the compound `CC(C)(O)CCn1ncc(-c2onc(-c3c(F)cccc3Cl)c2-c2nccs2)c1C(F)(F)F` [Example 3, 4-(4-(3-(2-chloro-6-fluorophenyl)-4-(thiazol-2-yl)isoxazol-5-yl)-5-(trifluoromethyl)-1H-pyrazol-1-yl)-2-methylbutan-2-ol], the IC50 in the data set on IL-17A (Homo sapiens, PBMC) is below 50 nM; with INF-γ (Homo sapiens, PBMC), below 50 nM; with IL-17F (Homo sapiens, PBMC), below 50 nM. The half-life at 1 μM in data set [1] was above 100 min.
Consider `C[C@@H](O)Cn1ncc(-c2onc(-c3c(F)cccc3Cl)c2-c2nccs2)c1C(F)(F)F` [Example 4, (2R)-1-(4-(3-(2-chloro-6-fluorophenyl)-4-(thiazol-2-yl)isoxazol-5-yl)-5-(trifluoromethyl)-1H-pyrazol-1-yl)propan-2-ol], for which the IC50 was below 50 nM with IL-17A (Homo sapiens, PBMC); below 50 nM in the data set with INF-γ (Homo sapiens, PBMC); below 50 nM in the data set with IL-17F (Homo sapiens, PBMC). Besides, in data set [1], the half-life at 1 μM lay within 10 to 40 min.
Consider `C[C@H](O)Cn1ncc(-c2onc(-c3c(F)cccc3Cl)c2-c2nccs2)c1C(F)(F)F` [Example 5, (2S)-1-(4-(3-(2-chloro-6-fluorophenyl)-4-(thiazol-2-yl)isoxazol-5-yl)-5-(trifluoromethyl)-1H-pyrazol-1-yl)propan-2-ol], for which the IC50 in the data set with IL-17A (Homo sapiens, PBMC) was below 50 nM; in the data set on INF-γ (Homo sapiens, PBMC), below 50 nM; in the data set with IL-17F (Homo sapiens, PBMC), 50 to 500 nM. Also, the half-life at 1 μM in data set [1] fell in the range of 40 to 100 min.
Turning to `CCOC(=O)c1c(-c2c(F)cccc2Cl)noc1-c1cnn(C[C@@H](O)C(F)(F)F)c1C(F)(F)F` [Example 16, ethyl 3-(2-chloro-6-fluorophenyl)-5-{1-[(2R)-3,3,3-trifluoro-2-hydroxypropyl]-5-(trifluoromethyl)-1H-pyrazol-4-yl}-1,2-oxazole-4-carboxylate], the IC50 is below 50 nM in the data set on IL-17A (Homo sapiens, PBMC); below 50 nM in the data set on INF-γ (Homo sapiens, PBMC); below 50 nM in the data set on IL-17F (Homo sapiens, PBMC). The half-life at 1 μM in data set [1] is 2 to 9.99 min.
As for `COC(=O)c1c(-c2ccccc2Cl)noc1-c1cnn([C@H]2C[C@](C)(O)C2)c1C` [Example 18, methyl 3-(2-chlorophenyl)-5-(1-(3-hydroxy-3-methylcyclobutyl)-5-methyl-1H-pyrazol-4-yl)isoxazole-4-carboxylate], the values for the IC50 with IL-17A, in the data set with INF-γ and in the data set with IL-17F were 50 to 500 nM, below 50 nM and below 50 nM, respectively. Besides, the half-life at 1 μM in data set [1] is above 100 min.
As to `COC(=O)c1c(-c2ccccc2Cl)noc1-c1cnn(CCC(C)(C)O)c1C` [Example 19, methyl 3-(2-chlorophenyl)-5-[1-(3-hydroxy-3-methylbutyl)-5-methyl-1H-pyrazol-4-yl]-1,2-oxazole-4-carboxylate], the IC50 in the data set with IL-17A (Homo sapiens, PBMC) was below 50 nM; in the data set on INF-γ (Homo sapiens, PBMC), below 50 nM; in the data set with IL-17F (Homo sapiens, PBMC), 50 to 500 nM. In data set [1], the half-life at 1 μM was above 100 min.
For `COC(=O)c1c(-c2c(F)cccc2Cl)noc1-c1cnn(C[C@H](C)O)c1C(F)(F)F` [Example 23, methyl (S)-3-(2-chloro-6-fluorophenyl)-5-(1-(2-hydroxypropyl)-5-(trifluoromethyl)-1H-pyrazol-4-yl)isoxazole-4-carboxylate], the IC50 was 50 to 500 nM with IL-17A (Homo sapiens, PBMC); below 50 nM with INF-γ (Homo sapiens, PBMC); 50 to 500 nM in the data set on IL-17F (Homo sapiens, PBMC). In addition, in data set [1], the half-life at 1 μM was 10 to 40 min.
Regarding `COC(=O)c1c(-c2cccc(OC)c2Cl)noc1-c1cnn(CCC(C)(C)O)c1C` [Example 25, methyl 3-(2-chloro-3-methoxyphenyl)-5-[1-(3-hydroxy-3-methylbutyl)-5-methyl-1H-pyrazol-4-yl]-1,2-oxazole-4-carboxylate], the IC50 in the data set on IL-17A (Homo sapiens, PBMC) was below 50 nM; in the data set with INF-γ (Homo sapiens, PBMC), below 50 nM; with IL-17F (Homo sapiens, PBMC) it was below 50 nM. The half-life at 1 μM in data set [1] is above 100 min.
Regarding `C[C@@H](O)Cn1ncc(-c2onc(-c3cccc(C(=O)N4CCC4)c3Cl)c2-c2ccncn2)c1C(F)(F)F` [Example 158, (R)-(azetidin-1-yl)(2-chloro-3-(5-(1-(2-hydroxypropyl)-5-(trifluoromethyl)-1H-pyrazol-4-yl)-4-(pyrimidin-4-yl)isoxazol-3-yl)phenyl)methanone], the IC50 in the data set with IL-17A (Homo sapiens, PBMC) lay in the range of 50 to 500 nM; in the data set on INF-γ (Homo sapiens, PBMC) it was 50 to 500 nM; with IL-17F (Homo sapiens, PBMC) it was 50 to 500 nM.
For the compound `C[C@@H](O)Cn1ncc(-c2onc(-c3cccc(C(=O)NC4CC4)c3Cl)c2-c2ccncn2)c1C(F)(F)F` [Example 159, (R)-2-chloro-N-cyclopropyl-3-(5-(1-(2-hydroxypropyl)-5-(trifluoromethyl)-1H-pyrazol-4-yl)-4-(pyrimidin-4-yl)isoxazol-3-yl)benzamide], the IC50 is 500 to 5000 nM with IL-17A (Homo sapiens, PBMC); 50 to 500 nM in the data set on INF-γ (Homo sapiens, PBMC); 500 to 5000 nM in the data set on IL-17F (Homo sapiens, PBMC).
For `COc1c(C(=O)NC2CC2)cccc1-c1noc(-c2cnn(C[C@@H](C)O)c2C(F)(F)F)c1-c1ccncn1` [Example 161, (R)—N-cyclopropyl-3-(5-(1-(2-hydroxypropyl)-5-(trifluoromethyl)-1H-pyrazol-4-yl)-4-(pyrimidin-4-yl)isoxazol-3-yl)-2-methoxybenzamide], the IC50 in the data set with IL-17A (Homo sapiens, PBMC) was at least 5000 nM; with INF-γ (Homo sapiens, PBMC) it was 500 to 5000 nM; in the data set on IL-17F (Homo sapiens, PBMC) it was at least 5000 nM.
For `COc1c(C(=O)NC(C)C)cccc1-c1noc(-c2cnn(C[C@@H](C)O)c2C(F)(F)F)c1-c1ccncn1` [Example 162, (R)-3-(5-(1-(2-hydroxypropyl)-5-(trifluoromethyl)-1H-pyrazol-4-yl)-4-(pyrimidin-4-yl)isoxazol-3-yl)-N-isopropyl-2-methoxybenzamide], the IC50 in the data set with IL-17A (Homo sapiens, PBMC) was 500 to 5000 nM; in the data set on INF-γ (Homo sapiens, PBMC), 50 to 500 nM; in the data set with IL-17F (Homo sapiens, PBMC), at least 5000 nM.
With `COc1c(C(=O)N2CCC2)cccc1-c1noc(-c2cnn(C[C@@H](C)O)c2C(F)(F)F)c1-c1ccncn1` [Example 163, (R)-(azetidin-1-yl)(3-(5-(1-(2-hydroxypropyl)-5-(trifluoromethyl)-1H-pyrazol-4-yl)-4-(pyrimidin-4-yl)isoxazol-3-yl)-2-methoxyphenyl)methanone], the IC50 with IL-17A (Homo sapiens, PBMC) is at least 5000 nM; in the data set on INF-γ (Homo sapiens, PBMC), 500 to 5000 nM; in the data set with IL-17F (Homo sapiens, PBMC), at least 5000 nM.
Turning to `COc1c(C(=O)NC2CCC2)cccc1-c1noc(-c2cnn(C[C@@H](C)O)c2C(F)(F)F)c1-c1ccncn1` [Example 164, (R)—N-cyclobutyl-3-(5-(1-(2-hydroxypropyl)-5-(trifluoromethyl)-1H-pyrazol-4-yl)-4-(pyrimidin-4-yl)isoxazol-3-yl)-2-methoxybenzamide], the IC50 in the data set with IL-17A (Homo sapiens, PBMC) was 500 to 5000 nM; in the data set on INF-γ (Homo sapiens, PBMC) it was 500 to 5000 nM; with IL-17F (Homo sapiens, PBMC), 500 to 5000 nM.
In the case of `CCNC(=O)c1cccc(-c2noc(-c3cnn(C[C@@H](C)O)c3C(F)(F)F)c2-c2ccncn2)c1OC` [Example 165, (R)—N-ethyl-3-(5-(1-(2-hydroxypropyl)-5-(trifluoromethyl)-1H-pyrazol-4-yl)-4-(pyrimidin-4-yl)isoxazol-3-yl)-2-methoxybenzamide], the IC50 in the data set on IL-17A (Homo sapiens, PBMC) was 500 to 5000 nM; in the data set with INF-γ (Homo sapiens, PBMC), 500 to 5000 nM; with IL-17F (Homo sapiens, PBMC), at least 5000 nM.
`C[C@@H](O)Cn1ncc(-c2onc(-c3cccc(C(=O)NC4CCC4)c3)c2-c2ccncn2)c1C(F)(F)F` [Example 166, (R)—N-cyclobutyl-3-(5-(1-(2-hydroxypropyl)-5-(trifluoromethyl)-1H-pyrazol-4-yl)-4-(pyrimidin-4-yl)isoxazol-3-yl)benzamide]: the IC50 with IL-17A (Homo sapiens, PBMC) is 500 to 5000 nM; in the data set with INF-γ (Homo sapiens, PBMC), 500 to 5000 nM; in the data set on IL-17F (Homo sapiens, PBMC) it was at least 5000 nM.
Take `CC(C)NC(=O)c1cccc(-c2noc(-c3cnn(C[C@@H](C)O)c3C(F)(F)F)c2-c2ccncn2)c1` [Example 167, (R)-3-(5-(1-(2-hydroxypropyl)-5-(trifluoromethyl)-1H-pyrazol-4-yl)-4-(pyrimidin-4-yl)isoxazol-3-yl)-N-isopropylbenzamide]: the IC50 with IL-17A (Homo sapiens, PBMC) is at least 5000 nM; in the data set with INF-γ (Homo sapiens, PBMC) it was 500 to 5000 nM; in the data set on IL-17F (Homo sapiens, PBMC), at least 5000 nM.
